Reference: ChEMBL document CHEMBL3507680, “University of Dundee, Gates Library screen for HepG2 cell viability”

Experiment: Human HepG2 cell viability assay in 384 well format
Type: toxicity, cell-based
Design: dose 125 nL, time 70.5 hour; cytotoxicity at 70.5 h: concentration not given beside the values
Settings: HepG2 cells, read-out: Inhibition

Row | SMILES | cytotoxicity at 70.5 h
1 | CCOc1cc(C(=O)N2CCCC(n3nc(C)nc3C)C2)ccn1 (centres undefined) | -3.74%
2 | CC(C1CCN(Cc2ccc(OC(F)F)cc2)CC1)N1CCOCC1 (centres undefined) | -17.4%
3 | CN(C)S(=O)(=O)c1ccc(-c2nc(C#N)c(NC3CCCCC3)o2)o1 | -9.49%
4 | Cc1oc(-c2ccsc2)nc1CNCCn1cccn1 | -5.13%
5 | CS(=O)(=O)N1C[C@@H]2CC[C@H](C1)N(C(=O)CCc1ccsc1)C2 | -2.59%
6 | CN(C)c1ncc(NC(=O)N2CCC(CN3CCCC3)C2)cn1 (centres undefined) | 0.1%
7 | CC(C)(C)c1ccc(C2(C(=O)NCCS(C)(=O)=O)CC2)cc1 | -6.58%
8 | COc1cc(C2(C(=O)N3CCCC(n4cncn4)C3)CC2)ccc1C (centres undefined) | -7.1%
9 | CC(C)(C)c1ccc(S(=O)(=O)CCNC(=O)c2cnccn2)cc1 | 10.2%
10 | Cc1ccsc1C(=O)N1CCCC(c2[nH]ncc2S(C)(=O)=O)C1 (centres undefined) | -6.4%
11 | Cc1nc(-c2ccco2)ccc1C(=O)NCCCN1CCOCC1 | -98.3%
12 | Cc1ccc(C(=O)N2CCCC(CNS(C)(=O)=O)C2)o1 (centres undefined) | -7.3%
13 | NC(=O)CC1CCN(S(=O)(=O)c2cnn(-c3ccccc3)c2)CC1 | -5.73%
14 | O=C(Nc1ccccc1)C1CCCN(c2cc(-n3cncn3)ncn2)C1 (centres undefined) | -1.76%
15 | CN1C[C@@H](F)[C@@H](OCc2nc3ccccc3[nH]2)C1 | -5.45%
16 | COc1ccnc(N2CCN(C(=O)CCc3nccs3)CC2)n1 | -10.9%
17 | CCn1cc(CN2CCc3nc(N4CCOCC4)nc(O)c3CC2)cn1 | 7.44%
18 | Cc1nc(CN2CCN(c3ccc4nncn4n3)C(C)C2)oc1C (centres undefined) | -8.63%
19 | CCn1ccnc1CN1CCN(CCc2ccncc2)CC1C (centres undefined) | 7.35%
20 | CNC(=O)C1Cn2ccnc2C2(CCN(c3ccc(C)nn3)CC2)O1 (centres undefined) | -0.593%
21 | CC(C)C1CN(Cc2cnc(N(C)C)nc2)CCCN1CC1CC1 (centres undefined) | -10%
22 | CCN1Cc2c(C(=O)NCC3CC3)ncn2-c2ccccc2S1(=O)=O | -9.23%

Row | SMILES | cytotoxicity at 70.5 h
23 | Cc1nc(NC(C)C)nc2c1CN(Cc1cccs1)CC2 | 22.9%
24 | NCc1cccc(-c2cccnc2C(=O)NCCN2CCOCC2)c1 | -9.72%
25 | C=C(Br)CN(C)C1CCN(CCc2ccccn2)CC1 | -6.85%
26 | Cc1cnn(CCNCC(O)COc2ccc(Cl)cc2)c1 (centres undefined) | 2.45%
27 | Cc1cnc(C(=O)N2CCCn3c(nc(CN(C)C)cc3=O)C2)cn1 | 9.93%
28 | Fc1ccccc1-c1cc(N2[C@@H]3CC[C@H]2CNC3)n2nccc2n1 | -3.67%
29 | CCn1cc(CNCC(c2ccc(C)s2)N2CCOCC2)cn1 (centres undefined) | -7.64%
30 | Cc1ccoc1C(=O)N1Cc2c(Cn3ccnc3)nn(C)c2C1 | 20.4%
31 | C[C@@H]1CN(CC(C)(C)N2CCOCC2)C[C@@]1(O)C1CC1 | -6.35%
32 | Cc1n[nH]c(C)c1C1COCCN1C(=O)c1cc(F)ccc1F (centres undefined) | -8.76%
33 | Cc1cc(CN2CCN(C(=O)C3(C#N)CCCC3)CC2)on1 | 21%
34 | COCCNC(=O)CCNC(=O)c1ccc(N2CCC(C)=N2)cc1 | -16%
35 | c1ccc(COC[C@H]2CC[C@H]3[C@H](CCN3Cc3cccs3)O2)nc1 | -3.77%
36 | NCC1[C@H]2CN(CCc3ccccc3)C[C@@H]12 (some centres undefined) | 43.3%
37 | CCn1cnnc1C1CCN(C(=O)c2ccc(C(=O)OC)s2)CC1 | -10.6%
38 | CN1CCCN(c2ncnc(N3CCOCC3)c2N)CC1 | -6.57%
39 | NC(=O)CC1CCCN(C(=O)NCC2(c3cccs3)CCCC2)C1 (centres undefined) | -0.84%
40 | Cc1ccc(OCC2CCCN(C(=O)c3csc(CN(C)C)n3)C2)cc1 (centres undefined) | -4.88%
41 | Cc1ncc(C)c(N2CCC(Cc3ccc(Cl)cc3)(C(=O)O)CC2)n1 | -9.85%
42 | COCCN1CCC(CN(CC2CCCO2)C(=O)CCNC(C)=O)CC1 (centres undefined) | -3.63%
43 | CCN(CC1CCOC1)C(=O)Nc1ccc(OCC(F)(F)F)nc1 (centres undefined) | -2.33%
44 | COCCOC1CCN(C(C(=O)O)c2c(Cl)cccc2OC)CC1 (centres undefined) | -10.5%
